How the values were obtained:
Experiment in all cases: relative viability (nuclei count vs DMSO), 5 days (fraction); higher = more cells survive
[1] = compound: C[C@]1(c2nc3c(C(N)=O)cccc3[nH]2)CCCN1 [Veliparib] + CS(=O)(=O)CCNCc1ccc(-c2ccc3ncnc(Nc4ccc(OCc5cccc(F)c5)c(Cl)c4)c3c2)o1 [Lapatinib] (partner 2 µM)
In short: (§1)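 Relative viability is defined as nuclei in treated wells over nuclei in vehicle wells. Duplicate plates were run and medians reported. Lung cancer cell lines in 1536-well plates were dosed by pin tool one day after seeding, with one drug or with a fixed anchor-drug dose plus five library-drug doses (not always all listed) in √10 steps, and nuclei were counted after 5 days.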

[2] = compound: C[C@]1(c2nc3c(C(N)=O)cccc3[nH]2)CCCN1 [Veliparib] + CC(C)C[C@H](NC(=O)[C@H](Cc1ccccc1)NC(=O)c1cnccn1)B(O)O [Bortezomib] (partner 0.002 µM)
In short: as §1

[3] = compound: COC1=CC=C(C=C1)CN2C=CC3=C2C=C(C=C3)C(=O)NO + Cc1cc(Nc2cc(N3CCN(C)CC3)nc(Sc3ccc(NC(=O)C4CC4)cc3)n2)n[nH]1 [Tozasertib] (partner 0.1 µM)
In short: as §1

[4] = compound: COC1=CC=C(C=C1)CN2C=CC3=C2C=C(C=C3)C(=O)NO + N=C(N)NC(=N)NCCc1ccccc1 [Phenformin] (partner 250 µM)
In short: as §1

Cell Line	relative viability ([1]; first compound 0.02 µM)	relative viability ([1]; first compound 0.06325 µM)	relative viability ([1]; first compound 0.2 µM)	relative viability ([1]; first compound 0.6325 µM)	relative viability ([1]; first compound 2 µM)	relative viability ([2]; first compound 0.02 µM)	relative viability ([2]; first compound 0.06325 µM)	relative viability ([2]; first compound 0.2 µM)	relative viability ([2]; first compound 0.6325 µM)	relative viability ([2]; first compound 2 µM)	relative viability ([3]; first compound 0.08 µM)	relative viability ([3]; first compound 0.253 µM)	relative viability ([3]; first compound 0.8 µM)	relative viability ([3]; first compound 2.53 µM)	relative viability ([3]; first compound 8 µM)	relative viability ([4]; first compound 0.08 µM)	relative viability ([4]; first compound 0.253 µM)	relative viability ([4]; first compound 0.8 µM)	relative viability ([4]; first compound 2.53 µM)	relative viability ([4]; first compound 8 µM)
201T	1	1.03	1.04	1.05	0.995	1.09	1.07	1.06	1.18	1.08	0.677	0.976	0.998	0.877	0.943	0.487	0.466	0.453	0.431	0.35
A549	1.12	0.93	0.978	0.869	0.957												0.159	0.173	0.188	0.0674
A-427	1.11	1	0.994	1.04	0.802	0.969	0.936	0.929	0.99	0.959		0.234	0.212	0.202	0.185		0.344	0.357	0.314	0.235
ABC-1		1.17	1.18	0.878	1.1		0.266	0.257	0.259	0.304		0.221	0.183	0.162	0.209		0.216	0.246	0.296	0.234
BEN	0.445	0.72	0.777	0.824	0.81	0.676	0.739	0.827	0.87	0.78	0.442	0.472	0.437	0.495	0.445	0.267	0.224	0.263	0.269	0.259
CAL-12T	0.649	0.706	0.647	0.593	0.781	0.862	0.72	0.952	1.18	0.971	0.293	0.344	0.362	0.328	0.323	0.643	0.563	0.589	0.581	0.493
COR-L23	0.795	0.81	0.802	0.982	0.978	0.92	0.991	1.01	0.966	0.967	0.167	0.197	0.203	0.201	0.169	0.369	0.441	0.437	0.447	0.422
COR-L 105	0.35	0.371	0.327	0.362	0.388	0.735	0.633	0.548	0.783	0.83	0.351	0.355	0.328	0.416	0.319	0.383	0.492	0.335	0.34	0.271
Calu-6	1.14	0.985	0.96	0.971	0.989	1.1	0.966	0.926	1.02	0.859										
ChaGo-K-1							0.863	1.09	1.05	0.804		0.249	0.211	0.214	0.234		0.539	0.484	0.438	0.374
EBC-1	0.205	0.21	0.208	0.201	0.244	0.615	0.539	0.527	0.479	0.57										
EKVX	0.19	0.203	0.217	0.201	0.231	0.806	0.893	0.888	0.978	1.16	0.374	0.369	0.409	0.372	0.36	0.192	0.239	0.264	0.225	0.219
EMC-BAC-2	0.863	0.85	0.867	0.86	0.884	1.11	1.03	1.07	1.05	1.09	0.196	0.286	0.287	0.283	0.237	0.367	0.543	0.422	0.526	0.449
EPLC-272H		0.71	0.988	1.1	0.877		0.84	0.964	0.85	0.878	0.135		0.346	0.235	0.272	0.265		0.329	0.318	0.333
H3255	0.227	0.209	0.27	0.289	0.261	0.729	0.835	0.737	0.827	1.02	0.457	0.393	0.639	0.497	0.604	0.334	0.39	0.347	0.353	0.359

From the supplement of paper PMC10307832
